Test results from ChEMBL document CHEMBL1201862, “PubChem BioAssay data set” (2004).
The source made the active and inactive calls.

Assays:
Cytochrome P450 2C9 = Cytochrome P450 2C9 (Homo sapiens, UniProt P11712)
[1] = Luminescence Cell-Based Dose Confirmation HTS to Identify Activators of 5'UTR Stem-Loop Driven Alpha-Synuclein mRNA Translation in H4 Neuroglioblastoma Cells. [Related pubchem assays: 1829 (Project Summary), 1814 (Primary HTS)]; type: functional
[2] = Luminescence Cell-Based Dose Response HTS to Identify Activators of Luciferase Translation or Activity in H4 […] Cells. [Related pubchem assays: 1829 (Project Summary), 1814 (Primary HTS)]; type: functional
H4 = test: Luminescence Cell-Based Dose Response HTS to Identify Activators of 5'UTR Stem-Loop Driven Prion Protein mRNA Translation in H4 Neuroglioblastoma Cells. [Related pubchem assays: 1829 (Project Summary), 1814 (Primary HTS)]; type: functional; conditions: Homo sapiens
[3] = growth suppression of PTEN-null colon cells, dose response, cell-based, HCT116 PTEN knockout (AID 1047); type: functional;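 further: HCT116 colon tumor cells with PTEN knocked out; cells exposed to compound for 60 hours before readout; potency for loss of cell viability measured by luminescence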
[4] = growth suppression of beta-catenin-knockout colon cells, dose response, cell-based, HCT116, human colon tumor (AID 1045); type: functional;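 further: HCT116 colon tumor cells with beta catenin knocked out; cells exposed to compound for 60 hours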
[5] = Luminescence Cell-Based Dose Retest to Confirm Inhibitors of Cancer Stem Cells. [Related pubchem assays (depositor defined):AID2717, AID2721]; type: functional; conditions: Homo sapiens
[6] = HEp-2 cell cytotoxicity, dose response, cytotoxicity control for RSV inhibitor project, HTS (AID 2410); type: functional; conditions: human respiratory syncytial virus
Cytochrome P450 1A2 = molecular target: T1, Cytochrome P450 1A2 (Homo sapiens, UniProt P05177);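 further: PubChem cytochrome P450 panel assay, CYP1A2 panel member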
T1 sequence (P05177 whole entry): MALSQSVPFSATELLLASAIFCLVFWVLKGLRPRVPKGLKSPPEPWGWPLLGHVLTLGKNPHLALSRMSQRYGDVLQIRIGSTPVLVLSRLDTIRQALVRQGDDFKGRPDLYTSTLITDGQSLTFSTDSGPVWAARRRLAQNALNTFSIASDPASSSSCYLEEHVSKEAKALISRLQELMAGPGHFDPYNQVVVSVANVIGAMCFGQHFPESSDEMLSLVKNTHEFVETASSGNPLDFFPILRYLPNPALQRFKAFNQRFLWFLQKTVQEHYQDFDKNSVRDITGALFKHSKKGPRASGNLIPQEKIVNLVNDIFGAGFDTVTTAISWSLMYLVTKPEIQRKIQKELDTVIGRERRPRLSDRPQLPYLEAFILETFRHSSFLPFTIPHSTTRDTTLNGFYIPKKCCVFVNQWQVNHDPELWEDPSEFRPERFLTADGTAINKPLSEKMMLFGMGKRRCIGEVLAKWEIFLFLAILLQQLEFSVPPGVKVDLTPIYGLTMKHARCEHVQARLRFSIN

Cytochrome P450 2C19 = Cytochrome P450 2C19 (Homo sapiens, UniProt P33261); test: Cytochrome panel assay with activity outcomes. Panel member name: p450-cyp2c19 Compounds with AC50 equal or less than 10 uM are considered active; type: functional
[7] = Luminescence Cell-Based Dose Response HTS to Identify Inhibitors of 5'UTR Stem-Loop Driven Prion Protein mRNA Translation in H4 Neuroglioblastoma Cells. [Related pubchem assays: 1827 (Project Summary), 1813 (Primary HTS)]; type: functional
[8] = inhibitors of SNCA 5'UTR-driven reporter translation, confirmation, H4 neuroglioma cells, luminescence (AID 1988); type: functional, cell-based
[9] = inhibitors of firefly luciferase expression or activity, dose response, H4 neuroglioma cells, luminescence (AID 1990); type: functional, cell-based
[10] = cytotoxicity toward NIH3T3 fibroblasts, dose response, counter-screen, cell-based, ATP luminescence, mouse fibroblasts (AID 2010); type: functional;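 further: cells exposed to compound for about 90 hours before reading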
[11] = inhibitors of intracellular T. cruzi replication, confirmation, NIH3T3 host cells, beta-gal luminescence (AID 2044); type: functional, cell-based;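 further: intracellular parasites grown in NIH/3T3 mouse fibroblasts as host cells; luminescent beta-galactosidase reporter signal from transgenic T. cruzi replicating inside host cells; inhibitors lower the luminescence signal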

Chain of Cytochrome P450 2C9 (P11712 whole entry): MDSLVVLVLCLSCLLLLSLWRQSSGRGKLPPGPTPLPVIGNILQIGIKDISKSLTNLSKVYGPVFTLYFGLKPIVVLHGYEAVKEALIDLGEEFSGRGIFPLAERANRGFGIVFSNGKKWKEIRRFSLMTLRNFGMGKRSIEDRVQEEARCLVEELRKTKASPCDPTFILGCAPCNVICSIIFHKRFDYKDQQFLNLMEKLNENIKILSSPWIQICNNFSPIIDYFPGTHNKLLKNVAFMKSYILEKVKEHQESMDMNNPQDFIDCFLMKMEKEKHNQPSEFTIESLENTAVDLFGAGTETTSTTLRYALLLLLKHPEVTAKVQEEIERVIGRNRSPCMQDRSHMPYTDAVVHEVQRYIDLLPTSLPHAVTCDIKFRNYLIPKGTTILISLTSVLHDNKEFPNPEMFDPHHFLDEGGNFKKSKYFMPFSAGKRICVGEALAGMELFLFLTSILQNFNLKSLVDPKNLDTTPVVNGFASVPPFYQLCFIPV
Chain of Cytochrome P450 2C19 (P33261 whole entry): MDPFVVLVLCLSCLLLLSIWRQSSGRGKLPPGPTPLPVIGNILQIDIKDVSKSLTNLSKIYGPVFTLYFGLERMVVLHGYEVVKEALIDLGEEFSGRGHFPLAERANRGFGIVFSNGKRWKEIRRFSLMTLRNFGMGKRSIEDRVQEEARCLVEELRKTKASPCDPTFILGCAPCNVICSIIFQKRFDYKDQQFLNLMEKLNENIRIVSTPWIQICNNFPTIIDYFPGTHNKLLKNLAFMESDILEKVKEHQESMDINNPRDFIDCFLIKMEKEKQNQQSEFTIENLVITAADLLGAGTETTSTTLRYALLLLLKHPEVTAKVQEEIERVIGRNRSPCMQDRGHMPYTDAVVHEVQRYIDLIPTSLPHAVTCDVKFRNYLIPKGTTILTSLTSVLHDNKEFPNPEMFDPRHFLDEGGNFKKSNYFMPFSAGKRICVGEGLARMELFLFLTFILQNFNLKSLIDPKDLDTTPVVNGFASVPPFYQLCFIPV

OC(COCC1COc2ccccc2O1)CN1CCN(c2ccccc2F)CC1 (stereo not given)
AC50 (Cytochrome P450 2C9): 20 µM (inconclusive)

Cc1ccc(N=NC2=C(O)OC(C)(C)OC2=O)c(C)c1
EC50 [1]: 15 µM (active)
EC50 [2]: 14.7 µM (active)
EC50 (H4): 19.1 µM (active)

Cc1nc2c(sc3nc4c(cc32)COC(C)(C)C4)c(=O)n1Cc1ccccc1
EC50 [1]: 7.25 µM (active)
EC50 [2]: 7.48 µM (active)
EC50 (H4): 11.6 µM (active)

CCCCn1c(SCC(=O)Nc2cc(NC(=O)c3ccco3)ccc2C)nc2ccccc2c1=O
EC50 [3]: 14.4 µM (active)
EC50 [4]: 19.7 µM (active)

O=C(NC(=S)N1CCCCC1)c1csc([N+](=O)[O-])c1
EC50 [1]: 14.9 µM (active)
EC50 [2]: > 120 µM (not active)
EC50 (H4): > 120 µM (not active)

CCOC(=O)c1[nH]c2c(c1-c1ccccc1)C(=O)CC(c1ccc(OC)c(OC)c1)C2 (stereo not given)
EC50 [3]: 54 µM (active)
EC50 [4]: 69.1 µM (active)

COc1ccc(OC)c(C(=O)/C=C/c2ccccc2C(F)(F)F)c1
AC50 [5]: 5.2 µM (active)

COc1ccc(-c2sc3ccc(N4CCOCC4)cc3c2C#CC(C)(C)O)cc1
AC50 [5]: 0.873 µM (active)

CCn1c2c(c3ccc(OC)cc31)CCCC2=O
CC50 [6]: > 50 µM (active)

O[C@@H]1[C@H](O)[C@H]2[C@@H](O)CCN2C[C@@H]1O
AC50 (Cytochrome P450 1A2): 31.6 µM (inconclusive)
AC50 (Cytochrome P450 2C9): 25.1 µM (inconclusive)
AC50 (Cytochrome P450 2C19; read-out: AC50): 39.8 µM (inconclusive)

Cc1ncc([N+](=O)[O-])n1CCOC(=O)NC(NCc1ccccc1)C(Cl)(Cl)Cl (stereo not given)
AC50 (Cytochrome P450 1A2): 25.1 µM (inconclusive)
AC50 (Cytochrome P450 2C9): 12.6 µM (inconclusive)
AC50 (Cytochrome P450 2C19; read-out: AC50): 14.1 µM (inconclusive)

CCN1C(=O)[C@H]2[C@@H](c3ccc(-c4ccc(F)cc4)c(OC)c3)N[C@@](CC(C)C)(C(=O)OC)[C@H]2C1=O
EC50 [7]: 26.4 µM (active)
EC50 [8]: 13.9 µM (active)
EC50 [9]: 17.2 µM (active)

COCCn1c(=O)c(-c2cn(C)c3ccccc23)nc2cncnc21
AC50 (Cytochrome P450 2C9): 10 µM (inconclusive)
AC50 (Cytochrome P450 2C19; read-out: AC50): 25.1 µM (inconclusive)

CC(=O)c1cc2c(s1)-c1cc(F)ccc1OC2
CC50 [6]: 33.3 µM (active)

CSCC(=O)N1CCC(n2nccc2NC(=O)c2ccc3c(c2)OCO3)CC1
EC50 [1]: 13.6 µM (active)
EC50 [2]: 12.3 µM (active)
EC50 (H4): > 120 µM (not active)

O=C(Cc1ccc(F)cc1)Nc1nnc(SCC(=O)N2CCCCC2)s1
AC50 [5]: 24.3 µM (active)

O=C(c1cc(C2CC2)nc2ccc(Br)cc12)N1N=C(C(F)F)CC1(O)C(F)F (stereo not given)
EC50 [3]: 10.5 µM (active)
EC50 [4]: 13.9 µM (active)

Cc1nc2nc(-c3ccc(Cl)cc3)nn2c(C)c1Cl
EC50 [2]: 0.454 µM (active)
EC50 (H4): 5.95 µM (active)
AC50 (Cytochrome P450 2C9): 20 µM (inconclusive)
AC50 (Cytochrome P450 2C19; read-out: AC50): 39.8 µM (inconclusive)

Cc1ccc(N2C(=O)C3C4C=CC(CC4)C3C2=O)cc1Br (stereo not given)
AC50 [5]: 0.678 µM (active)

CN(CC(=O)Nc1ccc(Cl)c(C(F)(F)F)c1)C(=O)Cc1c[nH]c2ccccc12
CC50 [6]: 16.7 µM (active)

Cc1ccc(C)c(OCCC(=O)N2CCN(S(=O)(=O)c3cc(C)ccc3C)CC2)c1
EC50 [7]: > 120 µM (not active)
CC50 [6]: 22.3 µM (active)
EC50 [8]: 97 µM (active)
EC50 [9]: > 120 µM (not active)

Cc1cc(C)c(NC(=O)CSc2nc(COc3ccccc3)nc3ccccc23)c(C)c1
EC50 [7]: 16.6 µM (active)
EC50 [8]: > 120 µM (not active)
EC50 [9]: > 120 µM (not active)

O=C(CN1C(=O)S/C(=C\C=C\c2ccccc2)C1=O)N1CCOCC1
EC50 [1]: 12.2 µM (active)
EC50 [2]: 10.3 µM (active)
EC50 (H4): 17.8 µM (active)

COc1ccc([N+](=O)[O-])cc1NC(=O)C(C)N(C)Cc1cccc(OC)c1OC (stereo not given)
CC50 [6]: > 50 µM (active)

CC(=O)OC[C@@H]1O[C@H](CCO/N=C(\C)CCC(=O)OC[C@@H]2O[C@H](C#Cc3ccccc3)C=C[C@@H]2Oc2ccc(C)cc2)C=C[C@@H]1OC(C)=O
AC50 (Cytochrome P450 2C9): 6.31 µM (inconclusive)

O=C(NC1CCCC1)c1ccc(CSCc2ccccc2F)o1
EC50 [1]: > 120 µM (not active)
EC50 [2]: 16.2 µM (active)
EC50 (H4): > 120 µM (not active)

Cc1cccc(CNc2ccc(C(CC(N)=O)NC(=O)Cc3cccc4ccccc34)cc2[N+](=O)[O-])c1 (stereo not given)
AC50 [5]: 5.85 µM (active)

COCC(=O)Nc1ccc(-c2cn3cccnc3n2)cc1
AC50 (Cytochrome P450 2C9): 6.31 µM (inconclusive)
AC50 (Cytochrome P450 2C19; read-out: AC50): 3.98 µM (inconclusive)

C=CCc1c(C)nc2c(OC)cccc2c1Cl
CC50 [6]: 48.5 µM (active)

O=C(OC(C(=O)Nc1ccc(Cl)cc1C(F)(F)F)c1ccccc1)c1c(Cl)cccc1Cl (stereo not given)
CC50 [6]: 22.1 µM (active)

CC1(C)Cc2c(c(-c3ccco3)nc3sc4c(NCCN5CCOCC5)ncnc4c23)CO1
EC50 [3]: 8.46 µM (active)
EC50 [4]: 16.2 µM (active)

COc1ccc(-c2cc(=O)oc3cc(OCC(=O)c4cccc([N+](=O)[O-])c4)ccc23)cc1
EC50 [3]: 24.9 µM (active)
EC50 [4]: 21.8 µM (active)

CC(C)(C)NC(=O)C(c1c[nH]c2ccccc12)N(C(=O)Cn1nnc(-c2ccc(Cl)cc2)n1)c1ccccc1F (stereo not given)
EC50 [10]: > 60 µM (not active)
EC50 [11]: 1.79 µM (active)
CC50 [6]: 25.8 µM (active)

COc1ccc(CCN2C(=S)N(C)C(=O)C2CC(=O)Nc2ccc(OC)cc2)cc1 (stereo not given)
AC50 [5]: 5.5 µM (active)

Cc1ccc(Nc2[nH]nc(C)c2[N+](=O)[O-])cc1
EC50 [1]: 44.9 µM (active)
EC50 [2]: 25.3 µM (active)
EC50 (H4): 0.172 µM (active)

CCOc1ccccc1NC(=O)c1nnn(-c2ccc3c(c2)OCCO3)c1N
CC50 [6]: 24.3 µM (active)

O=C(NC(=S)Nc1ccc(Oc2ccc(Cl)cc2)cc1)c1ccccc1
AC50 (Cytochrome P450 2C9): 2.82 µM (inconclusive)
AC50 (Cytochrome P450 2C19; read-out: AC50): 7.08 µM (inconclusive)

CCC(C)(C)n1nnnc1C(c1cc2cc(C)cc(C)c2nc1O)N1CCN(C(=O)c2ccco2)CC1 (stereo not given)
EC50 [3]: 28.4 µM (active)
EC50 [4]: 30.2 µM (active)

CC(/C=N/NC(=O)c1cc(-c2ccc(C)s2)[nH]n1)=C\c1ccccc1
AC50 [5]: 0.501 µM (active)

Cn1cccc1C(=O)N1CCC2(CC1)CCN(c1ccccn1)CC2
AC50 (Cytochrome P450 1A2): 15.8 µM (inconclusive)
AC50 (Cytochrome P450 2C9): 31.6 µM (inconclusive)

Cc1ccccc1Nc1nc(N)nc(-c2oc3ccccc3c2C)n1
EC50 [10]: > 60 µM (not active)
EC50 [11]: 3.43 µM (active)
CC50 [6]: 35.4 µM (active)

Cc1cccc(C(=N)NOC(=O)CCCN2C(=O)c3ccccc3C2=O)c1
AC50 (Cytochrome P450 2C9): 3.98 µM (inconclusive)
AC50 (Cytochrome P450 2C19): inconclusive

O=C(OCCOc1ccccc1)c1[nH]nc2ccccc12
EC50 [1]: 3.16 µM (active)
EC50 [2]: 0.748 µM (active)
EC50 (H4): 98.3 µM (inconclusive)

Cc1ccccc1S(=O)(=O)N1[C@@H](c2cccc(Cl)c2)C(C(=O)O)=CC[C@H]1c1ccc(Cl)cc1
CC50 [6]: 15.4 µM (active)

Cc1ccc(Nc2nc(N)nc(CN3CCN(Cc4ccc5c(c4)OCO5)CC3)n2)cc1Cl
EC50 [3]: 18 µM (active)
EC50 [4]: 15.9 µM (active)

O=C(O)c1ccc(Cn2nnc3sc4c(c3c2=O)CCCC4)cc1
EC50 [1]: 13.2 µM (active)
EC50 [2]: 13.2 µM (active)
EC50 (H4): 53.1 µM (active)

O=C(Nc1ccc(Cn2cccn2)cc1)c1ccc(COc2cccc(Br)c2)cc1
AC50 [5]: < 0.16 µM (active)

Cc1nc2cncnc2n(C2CC2)c1=O
AC50 (Cytochrome P450 2C9): 7.94 µM (inconclusive)

COc1ccccc1-c1nnc(SCC(=O)Nc2ccccc2)o1
EC50 [1]: 0.382 µM (active)
EC50 [2]: 4.37 µM (inconclusive)
EC50 (H4): 66.2 µM (inconclusive)

Cc1ccc(-n2nnnc2SC(C(=O)c2c[nH]c3ccccc23)c2ccccc2)cc1 (stereo not given)
AC50 [5]: 2.14 µM (active)

COc1ccccc1C(=O)Nc1ccc2c(c1)nc(CCNC(=O)c1ccco1)n2C
EC50 [1]: 20.2 µM (active)
EC50 [2]: 81.6 µM (active)
EC50 (H4): > 120 µM (not active)

c1cncc(-c2nc(NCc3cccs3)c3ccccc3n2)c1
AC50 (Cytochrome P450 2C9): 1 µM (inconclusive)
AC50 (Cytochrome P450 2C19; read-out: AC50): 5.01 µM (inconclusive)
